The values that follow come from US11370774B2, “Substituted benzofuran, benzopyrrole, benzothiophene, and structurally related complement inhibitors” (BioCryst Pharmaceuticals, Inc., priority 2018, dated 2022).

In general, IC50 refers to the concentration that gives 50% inhibition.

This test addresses Factor D (Homo sapiens (Human), UniProt P00746). Kind of test: Factor D esterolytic assay (Z-Lys-SBzl substrate, DTNB, 405 nm). It is filed as biochemical. The note with it: Z-Lys-SBzl 1.29 mM, pH 7.5, 10% DMSO, tested a minimum of three times, read-out: Measured Ki (IC50) Value for Compounds: IC50. A digest of the protocol:
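Human Factor D ([…]) with 1.29 mM Z-Lys-SBzl in 100 mM HEPES, 500 mM NaCl, pH 7.5, 10% DMSO; substrate added immediately or after room-temperature preincubation. Released thiol reacted with DTNB, rate followed at 405 nm for 600 sec, 690 nm background subtracted. IC50 from percent inhibition versus uninhibited rate, n≥3.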

Sequence of Factor D (P00746 26-253): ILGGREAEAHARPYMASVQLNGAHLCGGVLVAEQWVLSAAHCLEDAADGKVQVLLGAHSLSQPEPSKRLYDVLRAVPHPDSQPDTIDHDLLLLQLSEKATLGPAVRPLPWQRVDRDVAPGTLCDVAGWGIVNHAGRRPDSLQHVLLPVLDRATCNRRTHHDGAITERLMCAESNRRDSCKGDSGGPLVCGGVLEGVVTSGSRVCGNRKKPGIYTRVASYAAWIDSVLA

Take `NCc1cccc(-c2cc(COc3ccccc3CC(=O)O)cc3c2ccn3Cc2ccccc2)c1` [Compound 362e, 2-(2-((4-(3-(aminomethyl)phenyl)-1-benzyl-1H-indol-6-yl)methoxy)phenyl)acetic acid]: the concentration for half-maximal inhibition (IC50) was < 1 µM.

For the compound `NCc1cccc(-c2cc(C(=O)Nc3ccccc3CC(=O)O)c(F)c3ccoc23)c1F` [Compound 246b, 2-(2-(7-(3-(aminomethyl)-2-fluorophenyl)-4-fluorobenzofuran-5-carboxamido)phenyl)acetic acid], the IC50 is < 1 µM.

For `Cc1ccc(CC(=O)O)c(NC(=O)c2nc(-c3cccc(CN)c3F)nn3cccc23)c1` [Compound 51c, 2-(2-(2-(3-(aminomethyl)-2-fluorophenyl)pyrrolo[2,1-f][1,2,4]triazine-4-carboxamido)-4-methylphenyl)acetic acid], the IC50 was < 1 µM.

Take `NCc1cccc(-c2cc(COc3cc(-c4ccco4)ccc3CC(=O)O)cc3ccoc23)c1` [Compound 318c, 2-(2-((7-(3-(aminomethyl)phenyl)benzofuran-5-yl)methoxy)-4-(furan-2-yl)phenyl)acetic acid]: the IC50 was < 1 µM.

Turning to `NCc1cccc(-c2cc(COc3cc(CO)ccc3CC(=O)O)cc3ccoc23)c1` [Compound 361c, 2-(2-((7-(3-(aminomethyl)phenyl)benzofuran-5-yl)methoxy)-4-(hydroxymethyl)phenyl)acetic acid], the IC50 is < 1 µM.

As to `NCc1cccc(-c2cc(COc3ccccc3CC(=O)O)cc3cc(Cn4ccnc4)oc23)c1` [Compound 140c, 2-(2-((2-((1H-imidazol-1-yl)methyl)-7-(3-(aminomethyl)phenyl)benzofuran-5-yl)methoxy)phenyl)acetic acid], the IC50 is < 1 µM.

Regarding `COc1ccc(CC(=O)O)c(OCc2cc(-c3cccc(CN)c3F)c3occ(C(F)(F)F)c3c2)c1` [Compound 489b, 2-(2-((7-(3-(aminomethyl)-2-fluorophenyl)-3-(trifluoromethyl)benzofuran-5-yl)methoxy)-4-methoxyphenyl)acetic acid], the IC50 was < 1 µM.

Regarding `CCc1ccc(CC(=O)O)c(OCc2cc(-c3cccc(CN)c3)c3oc(F)cc3c2)c1` [Compound 469g, 2-(2-((7-(3-(aminomethyl)phenyl)-2-fluorobenzofuran-5-yl)methoxy)-4-ethylphenyl)acetic acid], the 50% inhibitory concentration (IC50) is < 1 µM.

For the compound `NCc1cccc(-c2cc(COc3ccccc3CC(=O)O)cc3ccsc23)c1` [Compound 214f, 2-(2-((7-(3-(aminomethyl)phenyl)benzo[b]thiophen-5-yl)methoxy)phenyl)acetic acid], the IC50 was < 1 µM.

On to `NCc1cccc(-c2cc(C(=O)Nc3ccccc3CC(=O)O)cc3cc(C4CC4)oc23)c1` [Compound 62c, 2-(2-(7-(3-(aminomethyl)phenyl)-2-cyclopropylbenzofuran-5-carboxamido)phenyl)acetic acid], for which the IC50 is < 1 µM.

As to `Cc1cc2cc(COc3ccccc3CC(=O)O)cc(-c3cccc(CN)c3)c2o1` [Compound 84f, 2-(2-((7-(3-(aminomethyl)phenyl)-2-methylbenzofuran-5-yl)methoxy)phenyl)acetic acid], the IC50 was < 1 µM.

With `Nc1cccc(-c2cc(COc3ccccc3CC(=O)O)cc3ccoc23)c1` [Compound 184c, 2-(2-((7-(3-aminophenyl)benzofuran-5-yl)methoxy)phenyl)acetic acid], the IC50 lay within 1 to 10 µM.

For the compound `NCc1cccc(-c2cc(COc3ccccc3CC(=O)O)cc3cc(CO)oc23)c1F` [Compound 94c, 2-(2-((7-(3-(aminomethyl)-2-fluorophenyl)-2-(hydroxymethyl)benzofuran-5-yl)methoxy)phenyl)acetic acid], the 50% inhibitory concentration (IC50) is < 1 µM.

As for `CC(C)n1ccc2c(-c3ccnc(CN)c3)cc(COc3cc(F)ccc3CC(=O)O)cc21` [Compound 496c, 2-(2-((4-(2-(aminomethyl)pyridin-4-yl)-1-isopropyl-1H-indol-6-yl)methoxy)-4-fluorophenyl)acetic acid], the IC50 was < 1 µM.

For `COc1ccc(CC(=O)O)c(NC(=O)c2nc(-c3cccc(CN)c3)nn3cccc23)c1` [Compound 42d, 2-(2-(2-(3-(aminomethyl)phenyl)pyrrolo[2,1-f][1,2,4]triazine-4-carboxamido)-4-methoxyphenyl)acetic acid], the IC50 was < 1 µM.

With `N#Cc1ccc(CC(=O)O)c(OCc2cc(-c3ccnc(CN)c3)c3occc3c2)c1` [Compound 433c, 2-(2-((7-(2-(aminomethyl)pyridin-4-yl)benzofuran-5-yl)methoxy)-4-cyanophenyl)acetic acid], the IC50 was < 1 µM.

Regarding `Cn1cc2c(-c3cccc(CN)c3F)cc(COc3ccccc3CC(=O)O)cc2n1` [Compound 129e, 2-(2-((4-(3-(aminomethyl)-2-fluorophenyl)-2-methyl-2H-indazol-6-yl)methoxy)phenyl)acetic acid], the IC50 was < 1 µM.

For `NCc1cc(-c2cc(COc3ccccc3CC(=O)O)cc3c2ccn3C(F)(F)F)ccn1` [Compound 532d, 2-(2-((4-(2-(aminomethyl)pyridin-4-yl)-1-(trifluoromethyl)-1H-indol-6-yl)methoxy)phenyl)acetic acid], the IC50 is < 1 µM.

`Nc1nccc2ccc(-c3cc(COc4ccccc4CC(=O)O)cc4ccoc34)cc12` [Compound 87c, 2-(2-((7-(1-aminoisoquinolin-7-yl)benzofuran-5-yl)methoxy)phenyl)acetic acid]: the IC50 was > 10 µM.

As to `CCOC(=O)Cc1ccccc1NC(=O)c1nc(-c2cccc(CN)c2)c2cccn2n1` [Compound 5g, ethyl 2-(2-(4-(3-(aminomethyl)phenyl)pyrrolo[2,1-f][1,2,4]triazine-2-carboxamido)phenyl)acetate], the IC50 is < 1 µM.

Take `NCc1cccc(-c2cc(COc3ccccc3CC(=O)O)cc3cc(C(N)c4ccccc4)oc23)c1` (single isomer, unassigned; (+)) [Compound 460d, (+)-2-(2-((2-(amino(phenyl)methyl)-7-(3-(aminomethyl)phenyl)benzofuran-5-yl)methoxy)phenyl)acetic acid]: the half-inhibitory concentration (IC50) was < 1 µM.

As for `NCc1nccc(-c2cc(COc3ccccc3CC(=O)O)cc3ccoc23)c1F` [Compound 80e, 2-(2-((7-(2-(aminomethyl)-3-fluoropyridin-4-yl)benzofuran-5-yl)methoxy)phenyl)acetic acid], the IC50 is < 1 µM.

Turning to `NCc1cccc(-c2cc(COc3c(CC(=O)O)ccc4ccccc34)cc3ccoc23)c1` [Compound 399d, 2-(1-((7-(3-(aminomethyl)phenyl)benzofuran-5-yl)methoxy)naphthalen-2-yl)acetic acid], the IC50 was < 1 µM.

On to `NCc1cc(F)cc(-c2cc(COc3ccccc3CC(=O)O)cc3ccoc23)c1F` [Compound 256c, 2-(2-((7-(3-(aminomethyl)-2,5-difluorophenyl)benzofuran-5-yl)methoxy)phenyl)acetic acid], for which the IC50 is < 1 µM.

Turning to `NCc1cccc(-c2cc(COc3ccccc3CC(=O)O)cc3ccoc23)c1F` [Compound 56c, 2-(2-((7-(3-(aminomethyl)-2-fluorophenyl)benzofuran-5-yl)methoxy)phenyl)acetic acid], the IC50 was < 1 µM.

Turning to `NCc1cccc(-c2cc(COc3cc(Br)ccc3CC(=O)O)cc3ccoc23)c1` [Compound 182d, 2-(2-((7-(3-(aminomethyl)phenyl)benzofuran-5-yl)methoxy)-4-bromophenyl)acetic acid], the IC50 is < 1 µM.

As to `CCCc1cc2cc(COc3ccccc3CC(=O)O)cc(-c3ccnc(CN)c3)c2o1` [Compound 189c, 2-(2-((7-(2-(aminomethyl)pyridin-4-yl)-2-propylbenzofuran-5-yl)methoxy)phenyl)acetic acid], the IC50 is < 1 µM.

Regarding `N#Cc1ccc(CC(=O)O)c(OCc2cc(-c3cccc(C(N)CF)c3)c3occc3c2)c1` (single isomer, unassigned; (+)) [Compound 412b, (+)-2-(2-((7-(3-(1-amino-2-fluoroethyl)phenyl)benzofuran-5-yl)methoxy)-4-cyanophenyl)acetic acid], the half-maximal inhibitory concentration (IC50) is < 1 µM.

Take `Cn1ccc2c(-c3cccc(CN)c3)cc(COc3ccccc3CC(=O)O)cc21` [Compound 50e, 2-(2-((4-(3-(aminomethyl)phenyl)-1-methyl-1H-indol-6-yl)methoxy)phenyl)acetic acid]: the IC50 was < 1 µM.

Regarding `NCc1cccc(-c2cc(COc3cc(C(N)=O)ccc3CC(=O)O)cc3ccoc23)c1` [Compound 238c, 2-(2-((7-(3-(aminomethyl)phenyl)benzofuran-5-yl)methoxy)-4-carbamoylphenyl)acetic acid], the IC50 is < 1 µM.

`NCc1cc(-c2cc(COc3ccccc3CC(=O)O)cc3ccsc23)ccn1` [Compound 310c, 2-(2-((7-(2-(aminomethyl)pyridin-4-yl)benzo[b]thiophen-5-yl)methoxy)phenyl)acetic acid]: the IC50 was < 1 µM.

As for `Cc1ccc(CC(=O)O)c(OCc2cc(-c3cccc(CN)c3)c3ccn(C(C)C)c3c2)c1` [Compound 352c, 2-(2-((4-(3-(aminomethyl)phenyl)-1-isopropyl-1H-indol-6-yl)methoxy)-4-methylphenyl)acetic acid], the IC50 was < 1 µM.

With `Cc1oc2c(-c3cccc(CN)c3)cc(COc3ccccc3CC(=O)O)cc2c1Br` [Compound 425f, 2-(2-((7-(3-(aminomethyl)phenyl)-3-bromo-2-methylbenzofuran-5-yl)methoxy)phenyl)acetic acid], the IC50 was < 1 µM.

`NCc1cc(-c2cc(COc3ccccc3CC(=O)O)cc3ccoc23)cs1` [Compound 339c, 2-(2-((7-(5-(aminomethyl)thiophen-3-yl)benzofuran-5-yl)methoxy)phenyl)acetic acid]: the IC50 was < 1 µM.

Take `NCc1cc(-c2cc(COc3ccccc3CC(=O)O)cc3sccc23)ccn1` [Compound 221c, 2-(2-((4-(2-(aminomethyl)pyridin-4-yl)benzo[b]thiophen-6-yl)methoxy)phenyl)acetic acid]: the IC50 is < 1 µM.
